According to US11459315B2, “Modulators of methyl modifying enzymes, compositions and uses thereof” (Constellation Pharmaceuticals, Inc., priority 2017, dated 2022):
Where two headings read alike, the source gives them in different places.

Key:
PRC2 containing wt EZH2 = PRC2 containing wt EZH2 (Homo sapiens (Human), UniProt Q15910); assay: EZH2 biochemical assay (IC50), 3H-SAM incorporation into biotinylated H3 peptide
In short: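 Activity was measured as ³H-methyl transfer to a biotinylated H3K27me1 peptide over 18-22 h at room temperature, with capture on streptavidin flash plates. The 30 pM wt-EZH2 PRC2 complex was first pre-incubated 3-5 h with compound, 450 nM SAM/450 nM ³H-SAM and 2 µM H3K27me3 activator (pH 8.5, 0.8% DMSO). Four-parameter fits gave IC50.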

[1] = test system: H3K27me3 mark in HeLa cells (EZH2); assay: H3K27me3 Alpha Hela Assay (AlphaLISA); assay type: cell-based; details: HeLa cells, 72 hrs, read-out: EZH2 Cell H3K27me3 Alpha HeLa (EC50 K27me3)
In short: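 HeLa cells (1,000/well) treated with ten 3-fold compound doses for 72 h at 37 °C; lysates extracted and H3K27me3 detected by AlphaLISA with anti-K27me3 acceptor beads, biotinylated anti-H3 (3 nM) and streptavidin donor beads. EC50 from DMSO-normalized dose-response curves; duplicate plate assessed viability.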

[2] = 30 pM PRC2 containing wt EZH2; 3-5 h pre-incubation; read-out: EZH2 (IC50)
[3] = read-out: EZH2 (IC50); 30 pM PRC2 containing wt EZH2; 3-5 h pre-incubation
[4] = EZH2 (IC50), 30 pM PRC2 containing wt EZH2; 3-5 h pre-incubation

Chain of PRC2 containing wt EZH2 (Q15910 whole entry): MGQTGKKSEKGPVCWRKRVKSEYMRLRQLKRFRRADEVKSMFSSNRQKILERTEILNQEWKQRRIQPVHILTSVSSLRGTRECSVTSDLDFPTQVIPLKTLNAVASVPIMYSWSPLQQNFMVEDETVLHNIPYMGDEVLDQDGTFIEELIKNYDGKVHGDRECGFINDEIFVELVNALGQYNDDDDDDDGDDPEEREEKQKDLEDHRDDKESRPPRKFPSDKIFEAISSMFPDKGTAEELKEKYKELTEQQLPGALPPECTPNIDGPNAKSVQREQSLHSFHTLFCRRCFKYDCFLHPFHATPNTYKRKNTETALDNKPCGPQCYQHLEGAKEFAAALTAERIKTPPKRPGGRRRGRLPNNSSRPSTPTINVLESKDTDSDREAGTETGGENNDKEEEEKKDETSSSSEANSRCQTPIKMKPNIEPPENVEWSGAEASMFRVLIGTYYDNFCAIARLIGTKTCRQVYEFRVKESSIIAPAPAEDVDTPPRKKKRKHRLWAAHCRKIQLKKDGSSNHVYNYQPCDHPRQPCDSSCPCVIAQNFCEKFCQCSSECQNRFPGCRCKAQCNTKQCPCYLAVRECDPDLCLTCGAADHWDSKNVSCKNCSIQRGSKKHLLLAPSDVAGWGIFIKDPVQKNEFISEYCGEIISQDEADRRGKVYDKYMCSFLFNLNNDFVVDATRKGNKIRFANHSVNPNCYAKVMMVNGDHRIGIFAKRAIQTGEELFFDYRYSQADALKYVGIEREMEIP
Chain of PRC2 containing wt EZH2 (O75530 whole entry partner): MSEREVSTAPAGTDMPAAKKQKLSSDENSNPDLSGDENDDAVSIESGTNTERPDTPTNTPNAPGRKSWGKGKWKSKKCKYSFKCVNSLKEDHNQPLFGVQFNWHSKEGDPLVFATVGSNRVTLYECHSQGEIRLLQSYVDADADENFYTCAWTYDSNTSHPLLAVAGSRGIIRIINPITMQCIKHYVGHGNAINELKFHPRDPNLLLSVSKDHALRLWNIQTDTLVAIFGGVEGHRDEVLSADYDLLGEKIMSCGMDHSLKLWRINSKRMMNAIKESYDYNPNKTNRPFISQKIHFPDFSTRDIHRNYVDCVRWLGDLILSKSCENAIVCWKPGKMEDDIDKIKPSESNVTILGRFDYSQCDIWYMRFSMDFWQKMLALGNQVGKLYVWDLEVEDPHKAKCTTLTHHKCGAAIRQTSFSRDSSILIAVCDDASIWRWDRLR
Chain of PRC2 containing wt EZH2 (Q15022 whole entry partner): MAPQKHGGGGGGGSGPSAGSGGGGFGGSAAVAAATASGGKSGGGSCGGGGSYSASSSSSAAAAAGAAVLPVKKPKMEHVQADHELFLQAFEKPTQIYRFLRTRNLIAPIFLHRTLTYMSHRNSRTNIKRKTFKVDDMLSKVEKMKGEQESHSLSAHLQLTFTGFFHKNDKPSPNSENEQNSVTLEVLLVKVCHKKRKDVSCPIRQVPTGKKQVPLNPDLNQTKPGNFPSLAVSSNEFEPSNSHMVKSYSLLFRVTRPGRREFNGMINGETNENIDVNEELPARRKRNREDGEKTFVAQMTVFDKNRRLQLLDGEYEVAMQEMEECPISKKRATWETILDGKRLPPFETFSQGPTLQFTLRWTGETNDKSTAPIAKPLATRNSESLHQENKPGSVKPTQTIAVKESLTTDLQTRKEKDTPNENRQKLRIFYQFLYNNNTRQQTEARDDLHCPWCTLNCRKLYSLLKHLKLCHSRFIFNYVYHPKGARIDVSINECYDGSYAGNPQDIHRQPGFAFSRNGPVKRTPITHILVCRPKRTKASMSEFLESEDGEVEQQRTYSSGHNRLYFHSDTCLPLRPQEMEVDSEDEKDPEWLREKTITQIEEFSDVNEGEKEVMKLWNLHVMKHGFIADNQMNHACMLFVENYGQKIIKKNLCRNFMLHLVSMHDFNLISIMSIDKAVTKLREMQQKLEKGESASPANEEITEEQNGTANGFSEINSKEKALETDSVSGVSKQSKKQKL
Chain of PRC2 containing wt EZH2 (Q09028 whole entry partner): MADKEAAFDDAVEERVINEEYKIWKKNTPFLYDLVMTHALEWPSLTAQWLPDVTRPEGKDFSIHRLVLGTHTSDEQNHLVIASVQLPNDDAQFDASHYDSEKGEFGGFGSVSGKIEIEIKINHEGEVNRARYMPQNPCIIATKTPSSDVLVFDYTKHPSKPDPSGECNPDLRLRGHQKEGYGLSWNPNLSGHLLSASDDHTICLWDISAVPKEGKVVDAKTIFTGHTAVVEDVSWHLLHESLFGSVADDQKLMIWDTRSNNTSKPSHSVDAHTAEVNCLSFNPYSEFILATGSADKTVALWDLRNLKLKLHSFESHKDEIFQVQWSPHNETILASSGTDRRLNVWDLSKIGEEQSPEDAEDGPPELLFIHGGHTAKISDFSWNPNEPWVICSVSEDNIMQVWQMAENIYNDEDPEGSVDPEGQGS
Chain of PRC2 containing wt EZH2 (Q6ZN18 whole entry partner): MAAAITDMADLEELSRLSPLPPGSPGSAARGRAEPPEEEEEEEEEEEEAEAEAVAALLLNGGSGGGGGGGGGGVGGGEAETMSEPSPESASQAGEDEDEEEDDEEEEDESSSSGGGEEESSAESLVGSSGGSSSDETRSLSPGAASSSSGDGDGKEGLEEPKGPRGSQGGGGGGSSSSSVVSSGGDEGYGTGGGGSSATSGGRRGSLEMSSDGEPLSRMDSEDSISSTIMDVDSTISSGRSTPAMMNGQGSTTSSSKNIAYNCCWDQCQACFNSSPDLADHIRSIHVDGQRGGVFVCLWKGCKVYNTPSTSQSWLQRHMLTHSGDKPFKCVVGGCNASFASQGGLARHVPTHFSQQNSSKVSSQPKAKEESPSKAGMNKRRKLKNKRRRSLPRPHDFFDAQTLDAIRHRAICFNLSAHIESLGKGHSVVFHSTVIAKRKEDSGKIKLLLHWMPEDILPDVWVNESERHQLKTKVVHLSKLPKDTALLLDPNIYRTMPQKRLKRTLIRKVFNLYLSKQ

Compound: CSc1cc(C)[nH]c(=O)c1CNC(=O)c1c(C)n([C@H](C)C2CCC(N3CC(C(F)(F)F)C3)CC2)c2ncccc12 (stereo partly drawn) [Example 110, 2-methyl-N-((6-methyl-4-(methylthio)-2-oxo-1,2-dihydropyridin-3-yl)methyl)-1-((R)-1-(4-(3-(trifluoromethyl)azetidin-1-yl)cyclohexyl)ethyl)-1H-pyrrolo[2,3-b]pyridine-3-carboxamide]
- IC50 (PRC2 containing wt EZH2; [2]): < 0.5 nM
- EC50 ([1]; Homo sapiens, HeLa, 72 h): 10 to 100 nM

Compound: COC1CCC([C@@H](C)n2c(C)c(C(=O)NCc3c(SC)cc(C)[nH]c3=O)c3ccccc32)CC1 (single isomer, unassigned) [18 (isomer 2)]
- IC50 (PRC2 containing wt EZH2; [3]): < 0.5 nM
- EC50 [1]: < 10 nM

Compound: CSc1cc(C)[nH]c(=O)c1CNC(=O)c1c(C)n([C@H](C)C2CCC(N3CC(OC4CC4)C3)CC2)c2ncncc12 (single isomer, unassigned) [102 (isomer 2)]
- IC50 (PRC2 containing wt EZH2; [2]): < 0.5 nM
- EC50 [1]: 10 to 100 nM

Compound: CSc1cc(C)[nH]c(=O)c1CNC(=O)c1c(C)n([C@H](C)C2CCC(N3CC(OC4CC4)C3)CC2)c2ccccc12 (stereo partly drawn) [Example 100, 1-((R)-1-(4-(3-cyclopropoxyazetidin-1-yl)cyclohexyl)ethyl)-2-methyl-N-((6-methyl-4-(methylthio)-2-oxo-1,2-dihydropyridin-3-yl)methyl)-1H-indole-3-carboxamide]
- IC50 (PRC2 containing wt EZH2; [2]): < 0.5 nM
- EC50 ([1]; Homo sapiens, HeLa, 72 h): < 10 nM

Compound: CSc1cc(C)[nH]c(=O)c1CNC(=O)c1c(C)n([C@H](C)C2CCN(C3(C)CC3)CC2)c2ncccc12 [Example 131, (R)-2-methyl-N-((6-methyl-4-(methylthio)-2-oxo-1,2-dihydropyridin-3-yl)methyl)-1-(1-(1-(1-methylcyclopropyl)piperidin-4-yl)ethyl)-1H-pyrrolo[2,3-b]pyridine-3-carboxamide]
- IC50 (PRC2 containing wt EZH2; [4]): < 0.5 nM
- EC50 ([1]; Homo sapiens, HeLa, 72 h): < 10 nM

Compound: COCCOC1CCC([C@@H](C)n2c(C)c(C(=O)NCc3c(SC)cc(C)[nH]c3=O)c3ccccc32)CC1 (single isomer, unassigned) [67 (isomer 1)]
- IC50 (PRC2 containing wt EZH2; [3]): < 0.5 nM
- EC50 ([1]; Homo sapiens, HeLa, 72 h): 10 to 100 nM

Compound: CSc1cc(C)[nH]c(=O)c1CNC(=O)c1c(C)n([C@H](C)C2CCN(C(=O)CO)CC2)c2ccccc12 [Example 135, (R)-1-(1-(1-(2-hydroxyacetyl)piperidin-4-yl)ethyl)-2-methyl-N-((6-methyl-4-(methylthio)-2-oxo-1,2-dihydropyridin-3-yl)methyl)-1H-indole-3-carboxamide]
- IC50 (PRC2 containing wt EZH2; [2]): < 0.5 nM
- EC50 ([1]; Homo sapiens, HeLa, 72 h): > 100 nM

Compound: CSc1cc(C)[nH]c(=O)c1CNC(=O)c1c(C)n([C@H](C)C2CCC(NC3COC3)CC2)c2ccccc12 (single isomer, unassigned) [2 (isomer 2)]
- IC50 (PRC2 containing wt EZH2; [2]): < 0.5 nM
- EC50 [1]: 10 to 100 nM

Compound: CSc1cc(C)[nH]c(=O)c1CNC(=O)c1c(C)n([C@H](C)C2CCC(N(C)C3(C)COC3)CC2)c2ccccc12 (single isomer, unassigned) [3 (isomer 2)]
- IC50 (PRC2 containing wt EZH2; [2]): < 0.5 nM
- EC50 [1]: 10 to 100 nM

Compound: CSc1cc(C)[nH]c(=O)c1CNC(=O)c1c(C)n([C@H](C)C2CCN(CC(F)(F)F)CC2)c2cc(F)ccc12 [Example 92, (R)-6-fluoro-2-methyl-N-((6-methyl-4-(methylthio)-2-oxo-1,2-dihydropyridin-3-yl)methyl)-1-(1-(1-(2,2,2-trifluoroethyl)piperidin-4-yl)ethyl)-1H-indole-3-carboxamide]
- IC50 (PRC2 containing wt EZH2; [4]): < 0.5 nM
- EC50 ([1]; Homo sapiens, HeLa, 72 h): < 10 nM

Compound: CSc1cc(C)[nH]c(=O)c1CNC(=O)c1c(C)n([C@H](C)C2CCC(N3CC(O)C3)CC2)c2ccccc12 (stereo partly drawn) [Example 136, (R)-1-(1-(4-(3-hydroxyazetidin-1-yl)cyclohexyl)ethyl)-2-methyl-N-((6-methyl-4-(methylthio)-2-oxo-1,2-dihydropyridin-3-yl)methyl)-1H-indole-3-carboxamide]
- IC50 (PRC2 containing wt EZH2; [4]): < 0.5 nM
- EC50 ([1]; Homo sapiens, HeLa, 72 h): > 100 nM

Compound: CSc1cc(C)[nH]c(=O)c1CNC(=O)c1c(C)n([C@H](C)C2CCC(NC3(C(F)(F)F)COC3)CC2)c2ncccc12 (single isomer, unassigned) [163 (isomer 2)]
- IC50 (PRC2 containing wt EZH2; [2]): 0.5 to 5 nM
- EC50 [1]: 10 to 100 nM

Compound: CSc1cc(C)[nH]c(=O)c1CNC(=O)c1c(C)n([C@H](C)C2OCC(N3CC(F)(F)C3)CO2)c2ccccc12 (single isomer, unassigned) [85 (isomer 1)]
- IC50 (PRC2 containing wt EZH2; [4]): < 0.5 nM
- EC50 [1]: 10 to 100 nM

Compound: COC1CN(C2CCC([C@@H](C)n3c(C)c(C(=O)NCc4c(SCF)cc(C)[nH]c4=O)c4ccccc43)CC2)C1 (stereo partly drawn) [Example 93, N-((4-((fluoromethyl)thio)-6-methyl-2-oxo-1,2-dihydropyridin-3-yl)methyl)-1-((R)-1-(4-(3-methoxyazetidin-1-yl)cyclohexyl)ethyl)-2-methyl-1H-indole-3-carboxamide]
- IC50 (PRC2 containing wt EZH2; [2]): < 0.5 nM
- EC50 ([1]; Homo sapiens, HeLa, 72 h): 10 to 100 nM

Compound: CCOC1CN(C2CCC([C@@H](C)n3c(C)c(C(=O)NCc4c(SC)cc(C)[nH]c4=O)c4cccnc43)CC2)C1 (single isomer, unassigned) [91 (isomer 1)]
- IC50 (PRC2 containing wt EZH2; [2]): < 0.5 nM
- EC50 ([1]; Homo sapiens, HeLa, 72 h): < 10 nM

Compound: CSc1cc(C)[nH]c(=O)c1CNC(=O)c1c(C)n([C@H](C)C2CCC(N3CC(F)C3)CC2)c2ccccc12 (single isomer, unassigned) [24 (isomer 1)]
- IC50 (PRC2 containing wt EZH2; [4]): < 0.5 nM
- EC50 ([1]; Homo sapiens, HeLa, 72 h): < 10 nM

Compound: CSc1cc(C)[nH]c(=O)c1CNC(=O)c1c(C)n([C@@H](C)C2COC2)c2ccccc12 (single isomer, unassigned) [14 (isomer 2)]
- IC50 (PRC2 containing wt EZH2; [4]): > 5 nM
- EC50 ([1]; Homo sapiens, HeLa, 72 h): > 100 nM

Compound: CC[C@@H](C1CCC(N2CC(OC(F)F)C2)CC1)n1c(C)c(C(=O)NCc2c(SC)cc(C)[nH]c2=O)c2cccnc21 (stereo partly drawn) [Example 117, 1-((S)-1-(4-(3-(difluoromethoxy)azetidin-1-yl)cyclohexyl)propyl)-2-methyl-N-((6-methyl-4-(methylthio)-2-oxo-1,2-dihydropyridin-3-yl)methyl)-1H-pyrrolo[2,3-b]pyridine-3-carboxamide]
- IC50 (PRC2 containing wt EZH2; [2]): 0.5 to 5 nM
- EC50 ([1]; Homo sapiens, HeLa, 72 h): 10 to 100 nM

Compound: CO[C@@H]1CN(C2CCC([C@@H](C)n3c(C)c(C(=O)NCc4c(SC)cc(C)[nH]c4=O)c4cccnc43)CC2)C[C@H]1F (single isomer, unassigned) [104 (isomer 1)]
- IC50 (PRC2 containing wt EZH2; [2]): 0.5 to 5 nM
- EC50 [1]: 10 to 100 nM

Compound: CSc1cc(C)[nH]c(=O)c1CNC(=O)c1c(C)n([C@H](C)C2OCC(N3CC(C)(C)C3)CO2)c2ccccc12 (single isomer, unassigned) [78 (isomer 2)]
- IC50 (PRC2 containing wt EZH2; [4]): > 5 nM
- EC50 [1]: > 100 nM

Compound: CSc1cc(C)[nH]c(=O)c1CNC(=O)c1c(C)n([C@H](C)C2OCC(NC3(C)COC3)CO2)c2ccccc12 (single isomer, unassigned) [6 (isomer 2)]
- IC50 (PRC2 containing wt EZH2; [2]): 0.5 to 5 nM
- EC50 [1]: > 100 nM

Compound: CSc1cc(C)[nH]c(=O)c1CNC(=O)c1c(C)n([C@H](C)C2CCC(O)CC2)c2ncccc12 (single isomer, unassigned) [36 (isomer 2)]
- IC50 (PRC2 containing wt EZH2; [3]): < 0.5 nM
- EC50 [1]: < 10 nM

Compound: CSc1cc(C)[nH]c(=O)c1CNC(=O)c1c(C)n([C@H](C)C2CCC(N3CC(F)(F)C3)CC2)c2ccccc12 (single isomer, unassigned) [23 (isomer 2)]
- IC50 (PRC2 containing wt EZH2; [4]): < 0.5 nM
- EC50 [1]: < 10 nM

Compound: CSc1cc(C)[nH]c(=O)c1CNC(=O)c1c(C)n([C@H](C)C2CCC(N3CC(OC(F)F)C3)CC2)c2ncncc12 (stereo partly drawn) [Example 108, 7-((R)-1-(4-(3-(difluoromethoxy)azetidin-1-yl)cyclohexyl)ethyl)-6-methyl-N-((6-methyl-4-(methylthio)-2-oxo-1,2-dihydropyridin-3-yl)methyl)-7H-pyrrolo[2,3-d]pyrimidine-5-carboxamide]
- IC50 (PRC2 containing wt EZH2; [2]): < 0.5 nM
- EC50 ([1]; Homo sapiens, HeLa, 72 h): < 10 nM
